Measured values taken from patent publication US7875631B2, “Tetrahydroisoquinoline-and tetrahydrobenzazepine derivatives as igf-1 r inhibitors” (Analytecon S.A., priority 2004, dated 2011).

Columns and labels:
SK-Mel-28 cells = assay: Interaction with cell division, mitotic index; format: cell-based, human; conditions: four hours (vehicle 1.7)
Procedure: The mitotic index was determined after incubation of SK-Mel-28 cells with vehicle, the compound (I) of example 3 and nocodazole for four hours [essentially as described by C. L. Rieder et al.: Current Biology 10(2000) 1067-1070].

SK-MEL 28 cells = assay: Cell death by apoptosis, Annexin V staining, SK-MEL 28; format: cell-based, human; conditions: 500 ng/ml
Procedure: (§1) Jurkat and SK-MEL 28 cells were incubated with the compound (I) from example 3 for 6, 24 and 48 hours, after which the percentage of apoptotic cells were determined by Annexin V staining.
(§2) The numbers depicted in the Table represent the percentage of Annexin-V positive cells.

Jurkat cells = assay: Cell death by apoptosis, Annexin V staining, Jurkat; format: cell-based, human; conditions: for percentage of Annexin-V positive cells: Jurkat, 500 ng/ml
Procedure: as §1, §2

IGF-1R = target: T1, IGF-1R (Homo sapiens, UniProt P08069); assay: Inhibition of phosphorylation of IGF-1R in SK-MEL-28; format: cell-based; conditions: compound 1000 ng/ml for 2 hours, IGF-1 20 ng/ml for 5 minutes; IGF-1 alone = 100
T1 construct: endogenous in cells; host or cells: SK-MEL-28
T1 sequence (P08069 31-1367): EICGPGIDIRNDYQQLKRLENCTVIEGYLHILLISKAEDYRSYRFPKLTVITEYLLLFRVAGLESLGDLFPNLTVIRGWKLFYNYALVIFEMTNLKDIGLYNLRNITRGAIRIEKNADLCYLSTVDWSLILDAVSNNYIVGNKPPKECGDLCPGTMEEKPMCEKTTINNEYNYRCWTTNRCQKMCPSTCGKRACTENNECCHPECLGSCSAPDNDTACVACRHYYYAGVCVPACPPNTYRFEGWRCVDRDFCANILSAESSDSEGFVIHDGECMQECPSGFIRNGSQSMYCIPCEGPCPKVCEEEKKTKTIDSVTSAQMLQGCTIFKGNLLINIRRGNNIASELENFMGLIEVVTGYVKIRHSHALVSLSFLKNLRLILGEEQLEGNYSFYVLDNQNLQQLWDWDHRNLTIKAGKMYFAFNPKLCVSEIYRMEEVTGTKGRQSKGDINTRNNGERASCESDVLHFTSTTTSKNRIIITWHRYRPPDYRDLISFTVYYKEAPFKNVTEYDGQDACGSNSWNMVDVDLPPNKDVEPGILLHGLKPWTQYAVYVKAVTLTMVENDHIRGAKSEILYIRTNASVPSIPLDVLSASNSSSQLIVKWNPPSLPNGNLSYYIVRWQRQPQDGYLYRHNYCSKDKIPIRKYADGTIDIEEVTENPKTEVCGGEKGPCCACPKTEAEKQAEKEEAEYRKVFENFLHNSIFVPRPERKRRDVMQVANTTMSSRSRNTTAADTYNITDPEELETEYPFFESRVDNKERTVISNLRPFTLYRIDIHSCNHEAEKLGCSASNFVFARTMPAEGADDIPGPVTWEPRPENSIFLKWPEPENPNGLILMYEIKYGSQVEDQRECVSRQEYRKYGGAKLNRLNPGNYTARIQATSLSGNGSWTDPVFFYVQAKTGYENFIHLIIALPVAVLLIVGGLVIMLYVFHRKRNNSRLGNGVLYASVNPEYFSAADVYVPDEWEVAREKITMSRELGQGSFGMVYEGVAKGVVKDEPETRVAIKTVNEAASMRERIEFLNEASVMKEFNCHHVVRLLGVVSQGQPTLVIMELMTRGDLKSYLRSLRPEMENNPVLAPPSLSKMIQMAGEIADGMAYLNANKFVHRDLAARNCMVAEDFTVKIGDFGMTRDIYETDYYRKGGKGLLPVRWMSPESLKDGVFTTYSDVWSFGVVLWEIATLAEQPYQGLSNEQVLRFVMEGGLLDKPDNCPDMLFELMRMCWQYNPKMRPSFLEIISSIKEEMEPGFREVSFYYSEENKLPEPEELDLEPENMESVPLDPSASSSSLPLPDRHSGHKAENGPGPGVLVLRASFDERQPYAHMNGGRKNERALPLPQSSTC
Procedure: IGF-1R: Assay without treatment with compounds (I). (Essentially as described by M. Rubini et al. Exp. Cell Res. 230(1997) 284-292).
SK-MEL-28 cells (density 60000/cm^2; 100 mm diameter dish containing 10 ml RPMI 1640) were starved for 24 hours at 37° C. and thereafter treated for 5 minutes at 37° C. with IGF-1 (200 ng, Sigma). Untreated cells served as control. The cells were lyzed and subjected to immunoprecipitation using a specific antibody against IGF-1R (alfa-IR3, Oncogene Science). Immunoprecipitates were separated by polyacrylamide gel electrophoresis and transferred to nitrocellulose membranes (Amersham Bioscience). The immunoprecipitated IGF-1 receptor was located on the nitrocellulose membrane using an antibody against the alfa-subunit of the IGF-1R (N-20:sc-712, Santa Cruz Biotech.). Detection of the tyrosine phosphorylation of the IGF-1 receptor was performed by incubation of the nitrocellulose membranes with an anti-phosphotyrosine antibody (4G10, Upstate Biotechnology Ltd., UK). To reveal the anti-IGF-1R rabbit polyclonal antibody and the anti-phosphotyrosine mouse monoclonal antibody, the membranes were incubated with anti-rabbit IgG and anti-mouse IgG antibodies coupled to HRP, respectively, and visualized by the use of an enhanced chemiluminescence (ECL) detection system (Pierce). […]

insulin receptor (IR) = target: T2, insulin receptor (IR) (Homo sapiens, UniProt P06213); assay: Inhibition of phosphorylation of insulin receptor (IR) in SK-MEL-28; format: cell-based; conditions: 1 microgram/ml, 2 hours
T2 construct: endogenous in cells; host or cells: SK-MEL-28
T2 sequence (P06213 28-1382): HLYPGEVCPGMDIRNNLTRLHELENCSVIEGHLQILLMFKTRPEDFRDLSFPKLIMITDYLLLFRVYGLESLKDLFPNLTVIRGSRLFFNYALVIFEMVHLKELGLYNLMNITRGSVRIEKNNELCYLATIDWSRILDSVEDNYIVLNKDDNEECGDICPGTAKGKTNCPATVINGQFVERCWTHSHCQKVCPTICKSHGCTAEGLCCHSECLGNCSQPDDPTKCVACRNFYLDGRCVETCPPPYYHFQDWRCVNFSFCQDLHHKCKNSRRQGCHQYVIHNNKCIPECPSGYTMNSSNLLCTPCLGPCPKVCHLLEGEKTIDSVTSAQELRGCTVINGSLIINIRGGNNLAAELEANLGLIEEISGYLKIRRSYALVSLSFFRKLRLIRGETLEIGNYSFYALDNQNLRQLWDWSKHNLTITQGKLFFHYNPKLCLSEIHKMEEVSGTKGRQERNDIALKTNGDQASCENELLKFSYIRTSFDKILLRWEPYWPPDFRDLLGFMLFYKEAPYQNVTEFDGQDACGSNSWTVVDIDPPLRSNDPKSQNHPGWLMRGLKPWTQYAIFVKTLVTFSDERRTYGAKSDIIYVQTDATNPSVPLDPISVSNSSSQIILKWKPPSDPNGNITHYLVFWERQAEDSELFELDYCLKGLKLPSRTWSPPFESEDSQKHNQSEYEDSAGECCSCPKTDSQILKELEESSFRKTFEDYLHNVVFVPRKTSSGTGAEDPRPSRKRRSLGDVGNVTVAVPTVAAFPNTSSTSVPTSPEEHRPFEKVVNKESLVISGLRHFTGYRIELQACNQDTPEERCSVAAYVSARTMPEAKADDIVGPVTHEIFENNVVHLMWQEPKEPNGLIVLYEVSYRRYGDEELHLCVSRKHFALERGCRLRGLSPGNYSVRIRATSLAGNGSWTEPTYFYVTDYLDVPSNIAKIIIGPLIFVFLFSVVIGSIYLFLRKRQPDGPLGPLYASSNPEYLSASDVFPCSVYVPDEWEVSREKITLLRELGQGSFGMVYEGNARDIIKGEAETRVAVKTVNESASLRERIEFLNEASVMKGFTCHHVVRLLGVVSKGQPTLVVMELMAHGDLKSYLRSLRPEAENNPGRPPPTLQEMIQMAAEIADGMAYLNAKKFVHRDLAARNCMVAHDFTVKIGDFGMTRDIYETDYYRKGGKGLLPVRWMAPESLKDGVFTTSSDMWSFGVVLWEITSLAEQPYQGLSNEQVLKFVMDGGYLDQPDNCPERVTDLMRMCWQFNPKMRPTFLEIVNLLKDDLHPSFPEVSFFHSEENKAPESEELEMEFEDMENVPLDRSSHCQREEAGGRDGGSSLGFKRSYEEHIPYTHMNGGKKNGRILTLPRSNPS
Procedure: SK-MEL-28 cells (density 60000/cm^2) were grown in 100 mm diameter dishes containing 10 ml RPMI 1640 supplemented with 10% fetal bovine serum (FBS) for 24 hours. After 24 hours fresh medium supplemented with 10% FBS was added together with or without 1 microgram/ml of compound 33. The dishes were incubated at 37° C. for 2 hours, after which the cells were lyzed and subjected to immunoprecipitation using 2 microliter of an anti-IR monoclonal antibody (18-44, ABCAM) and 20 microliter of agarose-conjugated protein G. Antibody-antigen complexes were allowed to form for 4 hours at 4° C. and after that collected by centrifugation at 4° C. for 1 minute at 5000 rpm. Immunoprecipitated complexes were separated by electrophoresis on an 8% polyacrylamide gel and electroblotted onto a nitrocellulose membrane (Amersham Bioscience). The efficiency of the immunoprecipitation was determined by using a polyclonal antibody against the beta-subunit of the insulin receptor (C-19; Santa Cruz Biotech.). Detection of the tyrosine phosphorylation of the insulin receptor was performed by incubation of the nitrocellulose membranes with an anti-phosphotyrosine antibody (4G10, Upstate Biotechnology Ltd., UK). […]

COC(=O)Nc1nc2ccc(C(=O)c3cccs3)cc2[nH]1 [Nocodazole, reference compound] was tested, and the “mitotic index SK-Mel-28” value (SK-Mel-28 cells; 10 μM) was 2.9.
COc1ccc2c(c1)CCN(C(C)=O)C2c1cc(OC)c(OC)c(OC)c1 (racemic) [Example 3, 1-(3,4,5-trimethoxyphenyl)-2-acetyl-6-methoxy-1,2,3,4-tetrahydroisoquinoline] was tested, and the “percentage of Annexin-V positive cells” value (SK-MEL 28 cells; SK-Mel-28, 6 hours) was 8%, the “percentage of Annexin-V positive cells” value (SK-MEL 28 cells; SK-Mel-28, 24 hours) was 16% and the “percentage of Annexin-V positive cells” value (SK-MEL 28 cells; SK-Mel-28, 48 hours) was 70%. For the same compound, the “percentage of Annexin-V positive cells” value (Jurkat cells; 6 hours) was 8%, the “percentage of Annexin-V positive cells” value (Jurkat cells; 24 hours) was 89% and the induction of apoptosis (Jurkat cells; tested cell lines (Jurkat and SK-MEL 28), slower kinetics than SuperFasL) was “induces apoptosis”. The “mitotic index SK-Mel-28” value (SK-Mel-28 cells; 300 ng/ml) was 5.
In the case of COc1ccc2c(c1)CCCN(C)C2c1cc(OC)c(OC)c(OC)c1.Cl (stereo not shown) [Example 31, 1-(3,4,5-trimethoxyphenyl)-2-methyl-7-methoxy-2,3,4,5-tetrahydro-1H-2-bezazepine hydrochloride], the “% phosphorylation of IGF-1R in SK-MEL-28 cells” value (IGF-1R) is reported as 10%.
With COc1ccc2c(c1)CCN(C#N)C2c1cc(OC)c(OC)c(OC)c1 (single isomer, unassigned; (-)) [Example 33, (−)-1-(3,4,5-trimethoxyphenyl)-2-cyano-6-methoxy-1,2,3,4-tetrahydroisoquinoline] the “difference in phosphorylation of the insulin receptor versus untreated cells” value (insulin receptor (IR)) was “No difference”.
